Like-named read-outs stand apart in the source and are kept apart here. Values belong to the molecule of their own block, whether it stands above or below them.
Assays:
[1] = Mouse pharmacokinetic study (intravenous and oral); type: in vivo; details: for half-life (in words) / in vivo exposure (in words): Examples compared to reference compound IDN-6556
Description: Experimental Example 2: Mouse Pharmacokinetic Study
The mice were randomly divided into two groups (one intravenous group and one oral group) or only oral group, 3 males in each group. The compounds were formulated into the designated preparations. The intravenous preparations should be filtered to provide clear solutions, and the oral preparations can be clear or can be uniform suspensions. All animals in the intravenous group were intravenously injected with the given doses of the compound preparations through tail veins. The oral group was administrated with the given doses of the preparations by gavage.
Whole blood samples were collected from the other side of the tail vein at 8 time points (2 min, 5 min, 15 min, 30 min, 1 h, 2 h, 4 h and 8 h after administration) in the intravenous group, about 25 μL for each sample; whole blood samples were collected from the tail vein at 8 time points (2 min, 5 min, 15 min, 30 min, 1 h, 2 h, 4 h and 8 h after administration) in the oral group, about 25 μL for each sample.
[…] were added to a centrifuge tube containing anticoagulants, and centrifuged at 4° C., 3000 g for 15 min. The supernatant plasma was quickly frozen on dry ice and stored in a ⋅ refrigerator at −70° C.±10° C. until LC-MS/MS analysis was performed.
The concentration data of plasma drug for the compounds were processed with the non-compartmental model using WinNonlin™ Version 6.3.0 (Pharsight, Mountain View, Calif.) pharmacokinetic software. The peak concentration (Cmax), time to peak concentration (Tmax) and last time for quantitative were obtained directly from the blood concentration-time chart.
The following pharmacokinetic parameters were calculated by using Log-linear Trapezoidal method: elimination phase half-life (T1/2); apparent volume of distribution (Vdss) and clearance rate (CL); the average residence time of the drug in vivo from 0 to the last time point (MRT0-last); the average residence time of the drug in vivo from zero time to infinity (MRT0-inf); the area under time-plasma concentration curve from 0 to the last time point (AUC0-last); the area under time-plasma concentration curve from zero time to infinity (AUC0-inf); initial concentration (C0).
For individual plasma concentrations of less than BQL, the concentrations appeared before Tmax were calculated as 0, and the concentrations appeared after Tmax were directly excluded. All parameters and ratios were reported in the forms of three significant digits.
The pharmacokinetic parameters of this experiment were calculated according to the theoretical blood collection times and the theoretical dose concentrations as described in the protocol. The deviations between the actual dose concentrations and the theoretical concentrations were within the range of ±20%. The deviations between the actual blood collection times and the theoretical blood collection times were in conformity with the relevant SOP (the point within 1 hour after administration was within the range of ±1 min, and the others were within 5% of the theoretical time).

[2] = test system: Anti-Fas-induced Jurkat cells; test: Anti-Fas-induced apoptosis of Jurkat cells in vitro (Caspase 3 substrate Ac-DEVD-AMC fluorescence); type: cell-based; details: Homo sapiens; Jurkat Clone E6-1, Anti-Fas 50 ng/mL, 24 hours, Ac-DEVD-AMC 10 μM

SMILES: CC(C)(C)c1ccccc1NC(=O)C(=O)N1CCC(C(=O)N[C@@H](CC(=O)O)C(=O)COc2c(F)c(F)cc(F)c2F)CC1 [Example 7]
half-life (in words) [1]: significantly improved | in vivo exposure (in words) [1]: significantly improved | oral bioavailability (in words) ([1]; compared to reference compound IDN-6556): significantly improved | Area under the concentration-time curve ([1]; oral administration 10 mpk): 3.657 µM·h | Peak concentration ([1]; oral administration 10 mpk): 1636 nM | Time to peak concentration ([1]; oral administration 10 mpk): 0.833 h

SMILES: O=C(O)C[C@H](NC(=O)C1CCN(C(=O)Nc2ccccc2)CC1)C(=O)COc1c(F)c(F)cc(F)c1F [Example 80]
EC50 [2]: 17.5 nM

SMILES: CC(C)OC(=O)N1CCC(C(=O)N[C@@H](CC(=O)O)C(=O)COc2c(F)c(F)cc(F)c2F)CC1 [Example 68]
EC50 [2]: 23.2 nM

SMILES: O=C(O)C[C@H](NC(=O)C1CCN(C(=O)C(=O)NCCC2CCCC2)CC1)C(=O)COc1c(F)c(F)cc(F)c1F [Example 62]
EC50 [2]: 42.4 nM

SMILES: O=C(O)C[C@H](NC(=O)C1CCN(C(=O)c2ccccn2)CC1)C(=O)COc1c(F)c(F)cc(F)c1F [Example 35]
EC50 [2]: 25.4 nM

SMILES: CC(C)(C)c1ccccc1NC(=O)C(=O)N1CCCO[C@H](C(=O)N[C@@H](CC(=O)O)C(=O)COc2c(F)c(F)cc(F)c2F)C1 [Example 109]
EC50 [2]: 192 nM

SMILES: O=C(O)C[C@H](NC(=O)C1CC2(CCN(C(=O)C3CCCC3)CC2)C1)C(=O)COc1c(F)c(F)cc(F)c1F [Example 106]
EC50 [2]: 17.5 nM

SMILES: O=C(O)C[C@H](NC(=O)C1CCN(C(=O)C(=O)Nc2cc(Cl)ccc2C(F)(F)F)CC1)C(=O)COc1c(F)c(F)cc(F)c1F [Example 88]
EC50 [2]: 33.8 nM

SMILES: O=C(O)C[C@H](NC(=O)C1CCN(C(=O)C(=O)Nc2cc(Cl)ccc2Cl)CC1)C(=O)COc1c(F)c(F)cc(F)c1F [Example 101]
EC50 [2]: 61.3 nM

SMILES: O=C(O)C[C@H](NC(=O)C1CCN(C(=O)c2ncccn2)CC1)C(=O)COc1c(F)c(F)cc(F)c1F [Example 38]
EC50 [2]: 22 nM

SMILES: O=C(O)C[C@H](NC(=O)[C@@H]1CCCN(C(=O)C2CCCC2)C1)C(=O)COc1c(F)c(F)cc(F)c1F [Example 26]
EC50 [2]: 12.6 nM

SMILES: O=C(O)C[C@H](NC(=O)[C@@H]1CCCN(C(=O)Oc2ccccc2)C1)C(=O)COc1c(F)c(F)cc(F)c1F [Example 31]
EC50 [2]: 21.4 nM

Other lines, results leading:

in vivo exposure (in words) [1]: significantly improved | Area under the concentration-time curve ([1]; oral administration 10 mpk): 4.18 µM·h | Peak concentration ([1]; oral administration 10 mpk): 1993 nM | Time to peak concentration ([1]; oral administration 10 mpk): 0.5 h
SMILES: O=C(O)C[C@H](NC(=O)C1CCN(C(=O)OC2CCCC2)CC1)C(=O)COc1c(F)c(F)cc(F)c1F [Example 69]

half-life (in words) [1]: relatively short | in vivo exposure (in words) [1]: low | Apparent volume of distribution ([1]; intravenous injection 1 mpk): 0.82 L/kg | Area under the concentration-time curve ([1]; intravenous injection 1 mpk): 0.446 µM·h | Clearance rate ([1]; intravenous injection 1 mpk): 106 mL/min/kg | Half-life ([1]; intravenous injection 1 mpk): 15 min | Bioavailability ([1]; male, plasma, 10 mg/kg, oral administration 10 mpk, read-out: Bioavailability): ≤ 4% | Area under the concentration-time curve ([1]; oral administration 10 mpk): 0.197 µM·h | Bioavailability ([1]; oral administration 10 mpk): 4.4% | Peak concentration ([1]; oral administration 10 mpk): 227 nM | Time to peak concentration ([1]; oral administration 10 mpk): 0.25 h
SMILES: C[C@H](NC(=O)C(=O)Nc1ccccc1C(C)(C)C)C(=O)N[C@@H](CC(=O)O)C(=O)COc1c(F)c(F)cc(F)c1F [IDN-6556, reference compound]

EC50 [2]: 19.8 nM
SMILES: O=C(O)C[C@H](NC(=O)C1CCN(C(=O)Oc2cccc(Cl)c2Cl)CC1)C(=O)COc1c(F)c(F)cc(F)c1F [Example 103]

EC50 [2]: 21.1 nM
SMILES: O=C(O)C[C@H](NC(=O)[C@@H]1CCCN(C(=O)C(=O)NC2CCCC2)C1)C(=O)COc1c(F)c(F)cc(F)c1F [Example 27]

EC50 [2]: 18.8 nM
SMILES: Cc1c(F)cc(F)c(F)c1OCC(=O)[C@H](CC(=O)O)NC(=O)C1CCN(C(=O)c2noc3ccccc23)CC1 [Example 41]

EC50 [2]: 31.5 nM
SMILES: O=C(O)C[C@H](NC(=O)C1CCN(C(=O)O[C@@H]2C[C@H]3CC[C@@H]2C3)CC1)C(=O)COc1c(F)c(F)cc(F)c1F [Example 100]

EC50 [2]: 46.2 nM
SMILES: CC(C)(C)c1ccccc1NC(=O)C(=O)N1CCCCC[C@@H](C(=O)N[C@@H](CC(=O)O)C(=O)COc2c(F)c(F)cc(F)c2F)C1 [Example 113]

EC50 [2]: 44 nM
SMILES: O=C(O)C[C@H](NC(=O)C1CCN(c2ncc3cc(F)ccc3n2)CC1)C(=O)COc1c(F)c(F)cc(F)c1F [Example 82]

in vivo exposure (in words) [1]: significantly improved | Apparent volume of distribution ([1]; intravenous injection 1 mpk): 0.653 L/kg | Area under the concentration-time curve ([1]; intravenous injection 1 mpk): 0.852 µM·h | Clearance rate ([1]; intravenous injection 1 mpk): 38.6 mL/min/kg | Half-life ([1]; intravenous injection 1 mpk): 52.2 min | Area under the concentration-time curve ([1]; oral administration 10 mpk): 1.708 µM·h | Bioavailability ([1]; oral administration 10 mpk): 20.1% | Peak concentration ([1]; oral administration 10 mpk): 405 nM | Time to peak concentration ([1]; oral administration 10 mpk): 1 h
SMILES: O=C(O)C[C@H](NC(=O)C1CCN(C(=O)C2CCCC2)CC1)C(=O)COc1c(F)c(F)cc(F)c1F [Example 49]

EC50 [2]: 224 nM
SMILES: CC(C)(C)c1ccccc1NC(=O)C(=O)N1CC[C@@H](C(=O)N[C@@H](CC(=O)O)C(=O)COc2c(F)c(F)cc(F)c2F)C2CCCCC21 (stereo partly shown) [Example 19]

EC50 [2]: 66.3 nM
SMILES: CC(C)(C)c1ccccc1NC(=O)C(=O)N1CCCCC[C@H](C(=O)N[C@@H](CC(=O)O)C(=O)COc2c(F)c(F)cc(F)c2F)C1 [Example 114]

EC50 [2]: 57.4 nM
SMILES: O=C(O)C[C@H](NC(=O)[C@@H]1CCCN(C(=O)NC2CCCC2)C1)C(=O)COc1c(F)c(F)cc(F)c1F [Example 29]

EC50 [2]: 23.9 nM
SMILES: O=C(O)C[C@H](NC(=O)C1CCN(C(=O)c2ccncc2)CC1)C(=O)COc1c(F)c(F)cc(F)c1F [Example 37]

EC50 [2]: 52.8 nM
SMILES: O=C(O)C[C@H](NC(=O)C1CCN(C(=O)OCc2cc(Cl)ccc2Cl)CC1)C(=O)COc1c(F)c(F)cc(F)c1F [Example 96]
